From BindingDB's records for doi:10.1016/s0960-894x(98)00722-7 (Institut De Chimie Organique De L'Universit&#233, 1999)

Assay: Inhibitory activity against rice Alpha-galactosidase

IC50: 805 µM
SMILES: OCC1=NO[C@H]2[C@H](O)C(O)O[C@@H]12 (stereo partly drawn) [(3aS,6S,6aS)-3-Hydroxymethyl-3a,5,6,6a-tetrahydro-furo[2,3-d]isoxazole-5,6-diol]
